Measurements: patent publication US20050002861A1, “Enhanced scintigraphic imaging agents for imaging of infection and inflammation” (priority 2003, published 2005)
Where no end group is shown, it is not given here.

System: muscle tissue infected by E. coli
Assay: E. coli rabbit infection model: infection uptake and biodistribution of Tc-99m PGC's
Type: in vivo, New Zealand White (NZW) rabbits
Conditions: only some lysines replaced by arginine; compared with Tc-99m P1827H
Text: In yet another aspect of the present invention, the compositions of the invention are capable of achieving a favorable biodistribution that is characterized by a specific accumulation at the site to be imaged, e.g. in an infected muscle, and at the same time a low concentration in uninfected areas, such as normal muscle or blood. The biodistribution of the radiolabeled compositions of the invention may be expressed by means of an image contrast ratio. The image contrast ratio can be determined as the ratio Imax(infected muscle)/Imax(control muscle), hereinafter referred to as Imax:C, i.e., the maximum radioactivity accumulated in an infected muscle sample versus the maximum radioactivity accumulated in a control, i.e., uninfected, muscle sample. The radioactivity is measured as % of injected dose per gram of tissue/blood, i.e., % ID/g. For the determination of Imax values (and Iavg values; see below), the tissue or blood samples are divided into six parts of equal size/weight and the radioactivity in each of the six samples is counted. The sample with the highest radioactivity is used for the Imax value (the average of all six samples was used for Iavg). Imax (and Iavg) values are expressed as % ID/g. […]

Row | Substance | improvement over Tc-99m P1827H
1 | Ac-KKKKKCGCGGPLYRRIIRRLLES (cysteine pairing not given here) [P1829] | no significant improvement
2 | Ac-RRRRRCGCGGPLYKKIIKKLLES (cysteine pairing not given here) [P1828] | no significant improvement
